From the CheMixHub viscosity set
± gives the uncertainty stated by the source.

Test: xn = mol fraction of the nth substance listed

CCCN + CCCO
Details	viscosity [mPa·s]
298.15 K, 100 kPa, x2 = 0.0523	0.3938 ± 0.0045
298.15 K, 100 kPa, x2 = 0.1008	0.4276 ± 0.0049
298.15 K, 100 kPa, x2 = 0.2001	0.5072 ± 0.0058
298.15 K, 100 kPa, x2 = 0.2985	0.6113 ± 0.0069
298.15 K, 100 kPa, x2 = 0.3979	0.7332 ± 0.0082
298.15 K, 100 kPa, x2 = 0.5037	0.864 ± 0.0096
298.15 K, 100 kPa, x2 = 0.5989	1.002 ± 0.011
298.15 K, 100 kPa, x2 = 0.7015	1.186 ± 0.013
298.15 K, 100 kPa, x2 = 0.7962	1.378 ± 0.015
298.15 K, 100 kPa, x2 = 0.9032	1.671 ± 0.018
298.15 K, 100 kPa, x2 = 0.9626	1.843 ± 0.021
303.15 K, 101.33 kPa, x1 = 0.0903	1.559 ± 0.01
303.15 K, 101.33 kPa, x1 = 0.1862	1.343 ± 0.0086
303.15 K, 101.33 kPa, x1 = 0.2822	1.157 ± 0.0074
303.15 K, 101.33 kPa, x1 = 0.3807	0.9888 ± 0.0064
303.15 K, 101.33 kPa, x1 = 0.4868	0.8381 ± 0.0055
303.15 K, 101.33 kPa, x1 = 0.5804	0.7151 ± 0.0048
303.15 K, 101.33 kPa, x1 = 0.6878	0.596 ± 0.0042
303.15 K, 101.33 kPa, x1 = 0.7825	0.5123 ± 0.0039
303.15 K, 101.33 kPa, x1 = 0.901	0.417 ± 0.0034
313.15 K, 101.33 kPa, x1 = 0.0903	1.255 ± 0.0082
313.15 K, 101.33 kPa, x1 = 0.1862	1.096 ± 0.0072
313.15 K, 101.33 kPa, x1 = 0.2822	0.9516 ± 0.0063
313.15 K, 101.33 kPa, x1 = 0.3807	0.8187 ± 0.0054
313.15 K, 101.33 kPa, x1 = 0.4868	0.6961 ± 0.0048
313.15 K, 101.33 kPa, x1 = 0.5804	0.6034 ± 0.0043
313.15 K, 101.33 kPa, x1 = 0.6878	0.5101 ± 0.0039
313.15 K, 101.33 kPa, x1 = 0.7825	0.4401 ± 0.0035
313.15 K, 101.33 kPa, x1 = 0.901	0.3655 ± 0.0032

Cn1c(=O)c2c(ncn2C)n(C)c1=O + OCCO
viscosity [mPa·s], 100 kPa
Details	293.15 K	298.15 K	303.15 K	308.15 K	313.15 K	318.15 K	323.15 K
x1 = 0.00056	20.79 ± 0.15	16.86 ± 0.12	13.79 ± 0.099	11.41 ± 0.082	9.55 ± 0.069	8.092 ± 0.058	6.902 ± 0.05
x1 = 0.00112	20.75 ± 0.15	16.8 ± 0.12	13.77 ± 0.099	11.36 ± 0.082	9.528 ± 0.069	8.07 ± 0.058	6.89 ± 0.05
x1 = 0.00166	20.69 ± 0.15	16.76 ± 0.12	13.72 ± 0.098	11.34 ± 0.081	9.492 ± 0.068	8.048 ± 0.058	6.866 ± 0.05
x1 = 0.00222	20.64 ± 0.15	16.71 ± 0.12	13.67 ± 0.098	11.3 ± 0.081	9.464 ± 0.068	8.019 ± 0.058	6.833 ± 0.05
x1 = 0.00285	20.57 ± 0.15	16.66 ± 0.12	13.63 ± 0.098	11.27 ± 0.081	9.426 ± 0.068	7.982 ± 0.058	6.805 ± 0.049
x1 = 0.00335	20.53 ± 0.16	16.63 ± 0.12	13.59 ± 0.1	11.23 ± 0.082	9.403 ± 0.069	7.965 ± 0.058	6.785 ± 0.05

C=COC(C)=O + CCc1ccccc1
viscosity [mPa·s], 101 kPa
Details	x1 = 0.1246	x1 = 0.2478	x1 = 0.3516	x1 = 0.4658	x1 = 0.576	x1 = 0.6587	x1 = 0.7601	x1 = 0.8593	x1 = 0.9467
303.15 K	0.556 ± 0.007	0.523 ± 0.007	0.499 ± 0.006	0.475 ± 0.006	0.453 ± 0.006	0.439 ± 0.006	0.422 ± 0.006	0.408 ± 0.005	0.397 ± 0.005
313.15 K	0.506 ± 0.007	0.473 ± 0.006	0.45 ± 0.006	0.426 ± 0.006	0.407 ± 0.005	0.394 ± 0.005	0.379 ± 0.005	0.364 ± 0.005	0.352 ± 0.005

C=COC(C)=O + CCCCCCCCCCO
303.15 K, 101.33 kPa
Details	viscosity [mPa·s]
x1 = 0.1013	6.774 ± 0.037
x1 = 0.1998	4.804 ± 0.028
x1 = 0.3007	3.437 ± 0.02
x1 = 0.3991	2.488 ± 0.015
x1 = 0.5006	1.793 ± 0.011
x1 = 0.6004	1.31 ± 0.008
x1 = 0.6957	0.952 ± 0.006
x1 = 0.8003	0.682 ± 0.005
x1 = 0.904	0.489 ± 0.004

CCCCOC(C)=O + CN1CCCC1=O
viscosity [mPa·s], 101 kPa
Details	x2 = 0.1327	x2 = 0.256	x2 = 0.3711	x2 = 0.4785	x2 = 0.5792	x2 = 0.6737	x2 = 0.7626	x2 = 0.8463	x2 = 0.9253
303.15 K	0.801 ± 0.017	0.941 ± 0.02	1.061 ± 0.022	1.165 ± 0.024	1.258 ± 0.026	1.339 ± 0.028	1.405 ± 0.029	1.463 ± 0.03	1.512 ± 0.031
308.15 K	0.737 ± 0.015	0.861 ± 0.018	0.968 ± 0.02	1.059 ± 0.022	1.143 ± 0.024	1.213 ± 0.025	1.273 ± 0.026	1.325 ± 0.028	1.37 ± 0.028
313.15 K	0.69 ± 0.014	0.805 ± 0.017	0.905 ± 0.019	0.991 ± 0.021	1.065 ± 0.022	1.13 ± 0.024	1.187 ± 0.025	1.236 ± 0.026	1.28 ± 0.027
318.15 K	0.642 ± 0.013	0.745 ± 0.016	0.834 ± 0.017	0.911 ± 0.019	0.978 ± 0.02	1.037 ± 0.022	1.088 ± 0.023	1.131 ± 0.024	1.173 ± 0.024

CCCOC(=O)c1ccccc1 + CCCCCC
101 kPa
Details	viscosity [mPa·s]
298.15 K, x2 = 0.0545	2.09 ± 0.066
298.15 K, x2 = 0.1249	1.794 ± 0.057
298.15 K, x2 = 0.1605	1.659 ± 0.053
298.15 K, x2 = 0.2369	1.409 ± 0.045
298.15 K, x2 = 0.2765	1.298 ± 0.041
298.15 K, x2 = 0.33	1.155 ± 0.037
298.15 K, x2 = 0.3772	1.043 ± 0.033
298.15 K, x2 = 0.4847	0.827 ± 0.026
298.15 K, x2 = 0.5259	0.756 ± 0.024
298.15 K, x2 = 0.5689	0.69 ± 0.022
298.15 K, x2 = 0.6152	0.627 ± 0.02
298.15 K, x2 = 0.6632	0.569 ± 0.018
298.15 K, x2 = 0.7031	0.525 ± 0.017
298.15 K, x2 = 0.7496	0.479 ± 0.015
298.15 K, x2 = 0.7954	0.448 ± 0.014
298.15 K, x2 = 0.8308	0.42 ± 0.014
298.15 K, x2 = 0.8752	0.399 ± 0.013
298.15 K, x2 = 0.9201	0.371 ± 0.012
298.15 K, x2 = 0.9574	0.351 ± 0.011
308.15 K, x2 = 0.0876	1.62 ± 0.052
308.15 K, x2 = 0.1454	1.451 ± 0.046
308.15 K, x2 = 0.1923	1.32 ± 0.042
308.15 K, x2 = 0.2499	1.174 ± 0.037
308.15 K, x2 = 0.3064	1.046 ± 0.033
308.15 K, x2 = 0.3543	0.95 ± 0.03
308.15 K, x2 = 0.4116	0.845 ± 0.027
308.15 K, x2 = 0.4488	0.785 ± 0.025
308.15 K, x2 = 0.5082	0.698 ± 0.022
308.15 K, x2 = 0.5509	0.643 ± 0.021
308.15 K, x2 = 0.5926	0.594 ± 0.019
308.15 K, x2 = 0.6346	0.55 ± 0.018
308.15 K, x2 = 0.6803	0.507 ± 0.016
308.15 K, x2 = 0.7241	0.468 ± 0.015
308.15 K, x2 = 0.7719	0.433 ± 0.014
308.15 K, x2 = 0.8096	0.406 ± 0.013
308.15 K, x2 = 0.857	0.376 ± 0.012
308.15 K, x2 = 0.8946	0.354 ± 0.011
308.15 K, x2 = 0.9406	0.334 ± 0.011
318.15 K, x2 = 0.0693	1.388 ± 0.044
318.15 K, x2 = 0.1096	1.288 ± 0.041
318.15 K, x2 = 0.1613	1.172 ± 0.037
318.15 K, x2 = 0.221	1.048 ± 0.033
318.15 K, x2 = 0.2711	0.954 ± 0.03
318.15 K, x2 = 0.3284	0.856 ± 0.027
318.15 K, x2 = 0.3767	0.781 ± 0.025
318.15 K, x2 = 0.432	0.705 ± 0.023
318.15 K, x2 = 0.4801	0.644 ± 0.021
318.15 K, x2 = 0.5314	0.586 ± 0.019
318.15 K, x2 = 0.5757	0.54 ± 0.017
318.15 K, x2 = 0.6264	0.494 ± 0.016
318.15 K, x2 = 0.6694	0.457 ± 0.015
318.15 K, x2 = 0.7292	0.411 ± 0.013
318.15 K, x2 = 0.76	0.391 ± 0.013
318.15 K, x2 = 0.8056	0.362 ± 0.012
318.15 K, x2 = 0.8466	0.34 ± 0.011
318.15 K, x2 = 0.892	0.32 ± 0.01
318.15 K, x2 = 0.9292	0.304 ± 0.01

CCCN + CNC(C)=O
308.15 K, 101 kPa
Details	viscosity [mPa·s]
x2 = 0.0288	0.3203 ± 0.011
x2 = 0.161	0.4788 ± 0.011
x2 = 0.322	0.6904 ± 0.012
x2 = 0.4077	0.8508 ± 0.013
x2 = 0.5208	1.16 ± 0.015
x2 = 0.6414	1.544 ± 0.017
x2 = 0.7368	1.882 ± 0.018
x2 = 0.8217	2.222 ± 0.02
x2 = 0.9755	3.191 ± 0.025

[K+].[OH-] + O
323.15 K, 101 kPa
Details	viscosity [mPa·s]
x1 = 0.009	0.586 ± 0.018
x1 = 0.026	0.67 ± 0.02
x1 = 0.059	0.853 ± 0.026
x1 = 0.08	1.01 ± 0.03
x1 = 0.1	1.26 ± 0.04
x1 = 0.2	1.75 ± 0.05
x1 = 0.21	2.84 ± 0.09
x1 = 0.3	4.62 ± 0.14

CCCN + CCN(CC)CC
303.15 K, 101.33 kPa
Details	viscosity [mPa·s]
x2 = 0.1027	0.3371 ± 0.0049
x2 = 0.2061	0.3317 ± 0.0049
x2 = 0.3991	0.3268 ± 0.0049
x2 = 0.495	0.3278 ± 0.0049
x2 = 0.6009	0.331 ± 0.0049
x2 = 0.7911	0.3408 ± 0.005
x2 = 0.8925	0.3499 ± 0.005

CCCCCCCCCCCCCCCCCCCC + CCCCCCC
viscosity [mPa·s], 101.3 kPa
Details	x1 = 0.2	x1 = 0.4	x1 = 0.499	x1 = 0.597	x1 = 0.796
293.2 K	0.9382 ± 0.011	–	–	–	–
303.2 K	0.8194 ± 0.0093	1.567 ± 0.018	2.02 ± 0.023	–	–
313.2 K	0.7187 ± 0.0081	1.327 ± 0.015	1.705 ± 0.019	2.145 ± 0.024	2.989 ± 0.034
